According to US20240366648A1, “NAD-AUGMENTATION THERAPY FOR PARKINSON'S DISEASE” (Vestlandets Innovasjonsselskap AS (VIS), priority 2021, published 2024):

Key:
patients with ALS = conditions: de la Rubia et al. 2019; cited from earlier work
[1] = tested on: NAD metabolome in skeletal muscle; test: Metabolomic analysis (LC-MS) in skeletal muscle biopsies; format: in vivo, human; conditions: oral NR 1000 mg/day, 30 days
Experimental: Biological material was collected at both visits, following a minimum 6-hour fasting and within 6 hours after study drug intake for visit 2. Sampling included whole blood, serum, peripheral blood mononuclear cells (PBMCs), cerebrospinal fluid (CSF) and muscle biopsy. Lumbar puncture was performed according to standard clinical procedures to collect 10 ml CSF. Needle biopsy of the vastus lateralis muscle was performed using a Bard Magnum biopsy gun (BD©, United States) and 12G×10 cm biopsy needles. Muscle biopsies were immediately dissected to remove any non-muscle tissue (e.g., fat or fascia) and snap-frozen in liquid nitrogen.
Standard substances of all the targeted compounds were used to prepare stock standard solutions and these solutions were mixed and diluted to make serially diluted standard solutions in an internal standard solution containing 11 isotope-labeled compounds (NAD-13C5, NADH-d5, nicotinamide riboside-d4, nicotinic-d4 acid, nicotinic acid-d4 riboside, AMP-15N5, ATP-13C10, nicotinamide-d4, 1-methylnicotinamide-d3, adenosine-13C5 and GTP-13C10) in a concentration range of 0.0002 to 20 nmol/mL. Muscle tissues were added with water at 2.5 μL/mg raw material and then homogenized on an MM 400 mixer mill for 1 min twice. Methanol at 7.5 μL/mg raw material was then added and the samples were homogenized for 1 min three times. The samples were then placed at −20° C. for 2 h before centrifugation. 20 μL of the supernatant was mixed with 180 μL of the internal standard solution. The samples were then placed at 5° C. for 1 h and then centrifuged for 5 min at 21,000 g. The clear supernatants were used for LC-MS analyses. For metabolomic analyses in PBMCs, several aliquots of one sample were thawed on ice, centrifuged (10 min, 350×g, 4° C.), resuspended in ice-cold PBS and counted on a countess II cell counter. The equivalent volume of 10 Mio live cells was transferred into a new tube, centrifuged (10 min, 350×g, 4° C.), the supernatant removed, and the pellet immediately frozen on dry ice. Each PBMC sample was made into 75% methanol at a concentration of 50 μL per 1 Mio cells. After cell lysis on a MM 400 mixer mill for 1 min twice, the sample was centrifuged. 20 μL of the clear supernatant was mixed with 180 μL of the internal standard solution and was then used for LC-MS analysis.
For UPLC-MRM/MS, 10 μL aliquots of each standard solution and each sample solutions were injected to run LCMRM/MS either on a Waters Acquity UPLC coupled to a Sciex QTRAP 6500 Plus mass spectrometer with (−) ion detection or ESI or on an Agilent 1290 UHPLC system coupled to an Agilent 6495B QQQ mass spectrometer with (+) ion detection. For UPLC-(−) MRM/MS, a reversed-phase C18 LC column (2.1*100 mm, 1.8 μm) was used for LC separation, with the use of a tributylamine-ammonium acetate buffer (solvent A) and acetonitrile (solvent B) as the mobile phase for gradient elution at 50° C. and 0.25 mL/min. For UPLC-(+) MRM/MS, a reversed-phase C18 column (2.1*150 mm, 1.8 μm) was used for LC separation, with the use of hepatofluorobutyrate buffer (solvent A) and methanol (solvent B) as the mobile phase for gradient elution at 50° C. and 0.3 mL/min. Concentrations of individual metabolites detected in each sample were calculated by constructing linear-regression curves of individual metabolites with the analyte-to-internal standard peak area ratios (As/Ai) of standard solutions in each set of LC-MS runs and then by interpolating the calibration curves with the as/Ai values measured from injections of sample solutions in an appropriate concentration range for each compound. Sample preparation and metabolomic analyses were conducted at Creative Proteomics, NY, USA.
The between visit change ([visit 2]−[visit 1]) in MDS-UPDRS (total of subsections I-III; and individual subsections I, II and III) was compared between the NR and placebo groups using independent Student's t-test. […]

individuals with PD = test: Phase II trial, brain MRI at baseline and week 52 (Example 3); format: in vivo, human; conditions: 80 individuals who completed 52 weeks (1000 mg NR or placebo, blinded)
Experimental: To further test NR as a neuroprotective therapy for PD, and in particular to assess NR in delaying nigrostriatal degeneration or denervation, and clinical disease progression in patients with early PD, a multi-centre phase II randomized double-blinded clinical trial is performed, comparing NR to placebo in individuals with early stage PD.
Each capsule of NR contains 250 mg of NR. Patients are administered orally 2 capsules (each 250 mg) two times a day (1000 mg daily total) for the duration of the study (52 weeks). Placebo capsules are administered similarly (2 capsules two times a day). The study medication is to be taken every day during the treatment period, including prior to study visits and imaging.
The present study is a randomized, double-blind phase 11 trial, where a total of 400 individuals with PD receive 1000 mg NR or placebo for a period of 52 weeks. Extensive medical testing and screening, including brain MRI, is performed both at baseline and end-of-study (i.e., after 52 weeks of exposure). […] The therapy can therefore be considered not to be associated with an increase in glioma or brain neoplasm prevalence over the duration of treatment.

[2] = tested on: nigrostriatal degeneration or denervation (DAT loss); test: Follow-up DAT-scan of phase I participants (Example 4); format: in vivo, human
Source text: In the study of the present Example 4, […] of the participants from the study of Example 2 (9 receiving placebo and 11 receiving NR) were examined by a second DAT-scan 1-1.5 year after the completion of the study, for entry into the study of Example 3. […] FIG. 15 represents box plots showing the change (delta) of the DAT-scan tracer uptake in the posterior putamen between the second and first examination (delta=scan2−scan1). […] The data is normally distributed (Shapiro-Wilk normality test).

NC(=O)c1ccc[n+]([C@@H]2O[C@H](CO)[C@@H](O)[C@H]2O)c1 [NR, nicotinamide riboside]
clinical effect in patients with ALS (patients with ALS): substantial clinical improvement | Me-2-PY level in muscle tissue after treatment [1]: strongly elevated | Me-4-PY level in muscle tissue after treatment [1]: strongly elevated | NAAD level in muscle tissue after treatment [1]: strongly elevated | Nam N-oxide level in muscle tissue after treatment [1]: strongly elevated | acetyl-CoA, CoA, SAM and its metabolites, energy compounds such as ATP in muscle [1]: no significant change | methyl-Nam (Me-Nam) level in muscle tissue after treatment [1]: strongly elevated | steady state levels of NAD (NAD+ and NADH), NAD precursors and intermediates in muscle [1]: not significantly changed | cases of glioma or other brain neoplasms on brain MRI (individuals with PD): no cases of glioma or any other brain neoplasms | progression of the DAT loss between first and second DAT-scan, NR vs placebo group ([2]; second scan 1-1.5 year after the study, posterior putamen, t-test p=0.35): no significant difference | trend in progression of nigrostriatal denervation in NR group ([2]; smaller difference between the two examinations, p=0.35): non-significant trend for decreased progression
